The subject of one assay is Ascobolus. Put plainly: Antifungal activity against Ascobolus furfuraceus NRRL 6460 at 100 ug/disk by standard disk assay. In kind it is functional.
In the next assay the test system is Candida albicans. Put plainly: Antifungal activity against Candida albicans ATCC 14053 at 80 ug /disk by standard disk assay. In kind it is functional. As to conditions: read-out: IZ.

Active and inactive are the calls of the source. The calls are words filed in the database; no cut-off is given here.

Usually inhibition stands for the share of the control response that was lost under treatment. Lower therefore signals a weak effect. Turning to `CC(=O)CC1(O)C(=O)c2cc3c(c4c(C)cc(O)c(c24)C1=O)OC(C)C3(C)C` (centres undefined), the inhibition at 100 µg/disc in the assay on Ascobolus was found to be 47%. As to `Cc1cc(O)c2c3c(cc4c(c13)OC(C)C4(C)C)C(=O)/C(=N\C1C(=O)c3cc4c(c5c(C)cc(O)c(c35)C1=O)OC(C)C4(C)C)C2=O` (centres undefined), in the assay on Ascobolus, the outcome was inactive. In the assay with Ascobolus, `CC(C)[C@H]1CC[C@@H]2[C@]1(C)CC[C@]1(C)C3=CC[C@H]4[C@](C)(C(=O)O)[C@@H](O)[C@H](O)[C@@H](O)[C@]4(C(=O)O)[C@H]3CC[C@@]21C` [POLYTOLYPIN] displayed an inhibition at 100 µg/disc of 47%. The zone of inhibition at 80 µg/disc in the assay on Candida albicans was 11 mm.

For the origin of these results see ChEMBL document CHEMBL1150105, “Polytolypin, a new antifungal triterpenoid from the coprophilous fungus Polytolypa hystricis” (1995).
